Calls of active or inactive are those of the source.
Experiments:
[1] = biological target: Beta-galactosidase (Escherichia coli, UniProt Q8VNN2); experiment: detection-enzyme interference by beta-gal modulators – biochemical, E. coli enzyme, set 3, artefact control for CCR6 antagonist project, dose response (AID 504712); format: functional
[2] = biological target: T1, Hexokinase HKDC1 (Homo sapiens, UniProt Q2TB90); experiment: inhibition of HKDC1 glucose phosphorylation – biochemical, W721R variant, dose response (AID 504729); format: functional
T1 sequence (Q2TB90 whole entry): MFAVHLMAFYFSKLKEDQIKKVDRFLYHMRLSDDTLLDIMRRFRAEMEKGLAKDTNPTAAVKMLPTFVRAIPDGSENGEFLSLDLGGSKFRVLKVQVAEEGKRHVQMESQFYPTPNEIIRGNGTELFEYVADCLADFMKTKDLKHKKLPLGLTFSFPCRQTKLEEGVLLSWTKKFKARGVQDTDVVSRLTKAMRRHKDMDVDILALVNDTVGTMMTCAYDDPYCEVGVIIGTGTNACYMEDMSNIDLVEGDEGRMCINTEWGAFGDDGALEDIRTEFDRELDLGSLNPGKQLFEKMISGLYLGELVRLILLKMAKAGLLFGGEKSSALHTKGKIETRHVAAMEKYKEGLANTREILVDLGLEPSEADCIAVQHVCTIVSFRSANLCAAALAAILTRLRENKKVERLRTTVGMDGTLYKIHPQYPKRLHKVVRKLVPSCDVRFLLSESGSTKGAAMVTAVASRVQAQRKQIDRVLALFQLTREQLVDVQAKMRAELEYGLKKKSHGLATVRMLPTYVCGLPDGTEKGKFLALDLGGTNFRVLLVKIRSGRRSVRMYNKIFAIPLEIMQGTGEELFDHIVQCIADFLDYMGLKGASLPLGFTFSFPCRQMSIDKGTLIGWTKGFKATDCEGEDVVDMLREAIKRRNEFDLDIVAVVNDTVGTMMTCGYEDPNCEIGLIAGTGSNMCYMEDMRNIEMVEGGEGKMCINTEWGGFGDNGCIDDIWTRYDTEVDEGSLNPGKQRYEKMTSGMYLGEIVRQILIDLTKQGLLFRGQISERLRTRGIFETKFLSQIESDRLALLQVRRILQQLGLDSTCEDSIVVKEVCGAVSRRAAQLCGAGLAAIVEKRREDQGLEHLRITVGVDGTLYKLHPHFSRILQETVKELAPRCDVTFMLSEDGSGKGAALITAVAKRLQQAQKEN

[3] = biological target: T2, Lysine-specific demethylase 4C (Homo sapiens, UniProt Q9H3R0); experiment: inhibition of JMJD2C H3K9me3 demethylation – biochemical, DELFIA europium, cherry-picked samples, dose response (AID 488835); format: functional
T2 sequence (Q9H3R0 whole entry): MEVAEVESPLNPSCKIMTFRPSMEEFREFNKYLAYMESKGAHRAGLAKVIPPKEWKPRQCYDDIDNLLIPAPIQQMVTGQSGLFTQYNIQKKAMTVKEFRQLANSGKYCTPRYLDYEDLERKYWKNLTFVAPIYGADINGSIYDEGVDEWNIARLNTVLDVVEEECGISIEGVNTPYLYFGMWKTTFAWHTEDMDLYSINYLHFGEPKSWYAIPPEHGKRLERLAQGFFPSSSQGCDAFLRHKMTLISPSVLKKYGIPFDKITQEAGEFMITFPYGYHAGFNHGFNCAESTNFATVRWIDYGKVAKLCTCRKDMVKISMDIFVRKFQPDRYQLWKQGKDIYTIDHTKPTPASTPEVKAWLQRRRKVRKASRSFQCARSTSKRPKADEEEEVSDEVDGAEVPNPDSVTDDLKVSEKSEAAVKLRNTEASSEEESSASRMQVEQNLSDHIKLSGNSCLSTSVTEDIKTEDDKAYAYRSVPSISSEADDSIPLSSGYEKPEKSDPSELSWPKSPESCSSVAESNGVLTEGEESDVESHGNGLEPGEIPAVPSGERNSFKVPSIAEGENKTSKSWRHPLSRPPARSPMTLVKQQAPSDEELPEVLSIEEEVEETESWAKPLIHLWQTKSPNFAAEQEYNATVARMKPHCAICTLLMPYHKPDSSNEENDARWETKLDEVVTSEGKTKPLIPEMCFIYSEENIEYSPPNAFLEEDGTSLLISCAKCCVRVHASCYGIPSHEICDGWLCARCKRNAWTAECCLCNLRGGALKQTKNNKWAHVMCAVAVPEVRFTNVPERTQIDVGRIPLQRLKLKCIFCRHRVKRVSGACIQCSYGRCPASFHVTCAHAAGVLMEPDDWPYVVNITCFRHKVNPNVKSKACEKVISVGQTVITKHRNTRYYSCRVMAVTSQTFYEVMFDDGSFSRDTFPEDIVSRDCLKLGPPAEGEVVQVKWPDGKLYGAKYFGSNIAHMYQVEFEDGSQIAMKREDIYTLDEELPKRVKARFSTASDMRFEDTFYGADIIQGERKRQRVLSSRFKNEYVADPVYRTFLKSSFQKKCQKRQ

[4] = tested on: Vero; experiment: viability of Vero cells under compound – cytotoxicity control for flavivirus capping enzyme inhibitors (AID 588742); format: functional; conditions: Chlorocebus sabaeus
[5] = biological target: Genome polyprotein (dengue virus type 2, UniProt P29990); experiment: flavivirus cap methylation enzyme inhibition – biochemical, confirmation dose response, primary screen (AID 588689); format: functional
[6] = biological target: Hexokinase (Trypanosoma brucei, UniProt Q38C41); experiment: Confirmation assay for inhibitors of Trypanosoma brucei hexokinase 1-Analogue-first series. [Related pubchem assays (depositor defined):AID1430, AID1632, AID2516, AID2560, AID2579, AID2600, AID449725, AID492951]; format: functional
[7] = biological target: T3, Estrogen receptor (Homo sapiens, UniProt P03372);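 note: potency for inhibiting coactivator peptide recruitment to the receptor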
T3 sequence (P03372 whole entry): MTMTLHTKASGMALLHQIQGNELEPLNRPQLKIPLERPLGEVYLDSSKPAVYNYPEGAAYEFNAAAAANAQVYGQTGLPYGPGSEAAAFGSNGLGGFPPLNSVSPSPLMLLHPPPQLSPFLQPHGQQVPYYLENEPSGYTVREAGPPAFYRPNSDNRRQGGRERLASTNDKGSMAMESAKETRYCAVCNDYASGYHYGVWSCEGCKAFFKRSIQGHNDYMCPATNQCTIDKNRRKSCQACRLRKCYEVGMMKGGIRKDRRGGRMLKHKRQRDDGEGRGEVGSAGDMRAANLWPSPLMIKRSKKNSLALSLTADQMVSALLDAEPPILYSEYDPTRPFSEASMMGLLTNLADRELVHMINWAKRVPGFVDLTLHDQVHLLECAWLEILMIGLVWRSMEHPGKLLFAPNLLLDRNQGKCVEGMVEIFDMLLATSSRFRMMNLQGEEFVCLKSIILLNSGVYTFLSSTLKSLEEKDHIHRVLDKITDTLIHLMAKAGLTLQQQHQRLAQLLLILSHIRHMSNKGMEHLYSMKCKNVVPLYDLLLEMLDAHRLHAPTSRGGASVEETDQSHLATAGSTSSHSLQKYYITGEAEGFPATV

[8] = biological target: T4, Estrogen receptor beta (Homo sapiens, UniProt Q92731);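 note: recombinant ER-beta bound to coactivator SRC1 peptide in presence of estradiol agonist; inhibitors block coactivator peptide binding and lower the FRET signal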
T4 sequence (Q92731 whole entry): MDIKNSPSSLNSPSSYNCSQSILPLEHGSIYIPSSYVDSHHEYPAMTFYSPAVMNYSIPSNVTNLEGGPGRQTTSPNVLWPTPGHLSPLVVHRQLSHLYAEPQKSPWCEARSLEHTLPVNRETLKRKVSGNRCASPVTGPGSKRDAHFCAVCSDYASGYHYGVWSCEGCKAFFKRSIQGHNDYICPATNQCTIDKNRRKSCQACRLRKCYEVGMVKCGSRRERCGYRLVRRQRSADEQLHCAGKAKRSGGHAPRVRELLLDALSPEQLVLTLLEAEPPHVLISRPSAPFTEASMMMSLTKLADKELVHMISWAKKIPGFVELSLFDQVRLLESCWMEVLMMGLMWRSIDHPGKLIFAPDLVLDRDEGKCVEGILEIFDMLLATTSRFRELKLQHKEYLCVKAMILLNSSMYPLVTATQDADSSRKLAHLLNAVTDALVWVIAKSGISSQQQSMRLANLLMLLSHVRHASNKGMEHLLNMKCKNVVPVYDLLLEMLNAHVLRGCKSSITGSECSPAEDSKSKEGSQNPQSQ

[9] = biological target: T4, Estrogen receptor beta; experiment: blockers of SRC-3 recruitment to ERβ – biochemical, ELISA, streptavidin-HRP readout, orthogonal assay, confirmation (AID 1060)
[10] = biological target: Induced myeloid leukemia cell differentiation protein Mcl-1 (Homo sapiens, UniProt Q07820); format: functional
[11] = biological target: Eukaryotic translation initiation factor 4H (Homo sapiens, UniProt Q15056); experiment: inhibitors of translation initiation factor eIF4H – SAR follow-up (AID 435011); format: functional
[12] = biological target: Polyadenylate-binding protein 1 (Homo sapiens, UniProt P11940); experiment: PABP inhibition in translation initiation, SAR follow-up (AID 435018); format: functional
[13] = biological target: T5, Carboxy-terminal domain RNA polymerase II polypeptide A small phosphatase 1 (Homo sapiens, UniProt Q9GZU7); experiment: CTDSP1 inhibitors, concentration-response, biochemical, absorbance readout, ultra-high-throughput screen actives (AID 540297); format: functional
T5 sequence (Q9GZU7 whole entry): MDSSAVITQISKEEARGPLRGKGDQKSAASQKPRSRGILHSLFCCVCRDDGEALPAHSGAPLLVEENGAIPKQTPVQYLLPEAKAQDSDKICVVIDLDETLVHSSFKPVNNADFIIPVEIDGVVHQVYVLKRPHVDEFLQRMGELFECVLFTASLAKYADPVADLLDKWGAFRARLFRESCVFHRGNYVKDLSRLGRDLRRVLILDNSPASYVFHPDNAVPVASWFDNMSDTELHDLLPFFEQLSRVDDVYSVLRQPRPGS

[14] = biological target: DNA (cytosine-5)-methyltransferase 1 (Homo sapiens, UniProt P26358); experiment: inhibition of DNA methylation by DNMT1 – biochemical, fluorescent molecular beacon, confirmation (AID 602386); format: functional
[15] = biological target: T6, Voltage-gated N-type calcium channel alpha-1B subunit/Amyloid beta A4 precursor protein-binding family A member 1 (Homo sapiens, UniProt Q00975+Q02410); format: protein assay
T6 sequence (Q00975 whole entry): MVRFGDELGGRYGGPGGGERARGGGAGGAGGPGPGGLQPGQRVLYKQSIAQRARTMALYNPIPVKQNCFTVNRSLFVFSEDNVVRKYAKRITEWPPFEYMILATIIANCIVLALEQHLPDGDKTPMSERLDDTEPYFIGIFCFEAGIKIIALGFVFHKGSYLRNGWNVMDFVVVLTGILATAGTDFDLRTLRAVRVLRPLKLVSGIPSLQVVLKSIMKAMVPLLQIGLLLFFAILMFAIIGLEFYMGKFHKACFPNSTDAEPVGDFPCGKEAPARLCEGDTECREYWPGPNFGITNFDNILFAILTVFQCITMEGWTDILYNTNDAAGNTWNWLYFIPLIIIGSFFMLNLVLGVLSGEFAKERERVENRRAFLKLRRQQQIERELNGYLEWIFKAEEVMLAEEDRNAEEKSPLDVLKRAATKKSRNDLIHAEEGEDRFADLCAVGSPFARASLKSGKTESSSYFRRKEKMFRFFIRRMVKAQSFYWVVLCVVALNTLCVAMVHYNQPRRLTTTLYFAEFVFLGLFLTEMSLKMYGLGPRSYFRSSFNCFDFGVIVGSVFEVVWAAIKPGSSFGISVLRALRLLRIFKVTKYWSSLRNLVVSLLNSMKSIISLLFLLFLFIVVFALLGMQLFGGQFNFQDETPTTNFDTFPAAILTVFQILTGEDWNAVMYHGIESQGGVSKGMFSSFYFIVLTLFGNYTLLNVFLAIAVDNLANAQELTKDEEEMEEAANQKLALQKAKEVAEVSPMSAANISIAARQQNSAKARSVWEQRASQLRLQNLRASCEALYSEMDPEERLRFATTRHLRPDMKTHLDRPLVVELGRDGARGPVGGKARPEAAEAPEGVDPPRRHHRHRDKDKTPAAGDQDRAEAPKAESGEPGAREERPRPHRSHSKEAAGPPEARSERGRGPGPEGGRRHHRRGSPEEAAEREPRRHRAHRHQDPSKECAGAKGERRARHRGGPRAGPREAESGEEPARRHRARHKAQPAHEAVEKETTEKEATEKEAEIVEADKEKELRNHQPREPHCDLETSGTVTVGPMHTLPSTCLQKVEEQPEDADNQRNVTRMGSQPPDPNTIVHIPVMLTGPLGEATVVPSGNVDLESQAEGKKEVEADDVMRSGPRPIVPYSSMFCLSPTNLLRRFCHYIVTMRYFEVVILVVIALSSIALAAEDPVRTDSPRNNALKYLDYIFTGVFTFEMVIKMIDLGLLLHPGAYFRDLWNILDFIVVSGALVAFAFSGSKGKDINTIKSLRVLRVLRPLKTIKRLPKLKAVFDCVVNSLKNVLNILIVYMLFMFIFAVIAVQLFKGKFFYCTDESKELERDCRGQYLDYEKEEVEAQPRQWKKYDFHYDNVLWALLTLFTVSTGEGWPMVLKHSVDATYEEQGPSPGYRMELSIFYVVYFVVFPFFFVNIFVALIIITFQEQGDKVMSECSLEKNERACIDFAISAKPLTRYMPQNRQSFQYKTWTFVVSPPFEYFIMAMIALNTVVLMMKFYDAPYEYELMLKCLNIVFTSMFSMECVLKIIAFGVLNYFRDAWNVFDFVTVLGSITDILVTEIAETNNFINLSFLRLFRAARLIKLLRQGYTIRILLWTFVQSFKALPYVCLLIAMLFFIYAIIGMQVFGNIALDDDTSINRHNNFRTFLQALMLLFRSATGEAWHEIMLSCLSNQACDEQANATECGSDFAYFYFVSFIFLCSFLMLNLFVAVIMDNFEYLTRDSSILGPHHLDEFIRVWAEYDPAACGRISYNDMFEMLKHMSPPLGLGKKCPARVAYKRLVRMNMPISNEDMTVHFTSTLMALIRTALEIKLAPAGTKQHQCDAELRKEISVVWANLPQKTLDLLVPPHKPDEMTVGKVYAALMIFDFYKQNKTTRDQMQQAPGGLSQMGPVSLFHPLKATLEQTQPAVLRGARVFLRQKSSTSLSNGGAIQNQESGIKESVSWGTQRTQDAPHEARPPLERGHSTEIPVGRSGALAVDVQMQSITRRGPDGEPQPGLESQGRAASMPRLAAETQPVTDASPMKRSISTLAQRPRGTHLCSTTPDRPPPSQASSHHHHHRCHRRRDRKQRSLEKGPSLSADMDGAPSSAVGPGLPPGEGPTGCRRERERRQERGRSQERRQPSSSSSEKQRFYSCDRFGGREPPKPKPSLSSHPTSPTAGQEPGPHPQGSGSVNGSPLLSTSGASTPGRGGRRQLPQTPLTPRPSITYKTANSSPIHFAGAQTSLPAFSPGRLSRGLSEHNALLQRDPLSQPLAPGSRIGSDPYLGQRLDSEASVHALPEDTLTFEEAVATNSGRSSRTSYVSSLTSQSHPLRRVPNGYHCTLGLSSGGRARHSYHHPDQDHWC
T6 sequence (Q02410 whole entry): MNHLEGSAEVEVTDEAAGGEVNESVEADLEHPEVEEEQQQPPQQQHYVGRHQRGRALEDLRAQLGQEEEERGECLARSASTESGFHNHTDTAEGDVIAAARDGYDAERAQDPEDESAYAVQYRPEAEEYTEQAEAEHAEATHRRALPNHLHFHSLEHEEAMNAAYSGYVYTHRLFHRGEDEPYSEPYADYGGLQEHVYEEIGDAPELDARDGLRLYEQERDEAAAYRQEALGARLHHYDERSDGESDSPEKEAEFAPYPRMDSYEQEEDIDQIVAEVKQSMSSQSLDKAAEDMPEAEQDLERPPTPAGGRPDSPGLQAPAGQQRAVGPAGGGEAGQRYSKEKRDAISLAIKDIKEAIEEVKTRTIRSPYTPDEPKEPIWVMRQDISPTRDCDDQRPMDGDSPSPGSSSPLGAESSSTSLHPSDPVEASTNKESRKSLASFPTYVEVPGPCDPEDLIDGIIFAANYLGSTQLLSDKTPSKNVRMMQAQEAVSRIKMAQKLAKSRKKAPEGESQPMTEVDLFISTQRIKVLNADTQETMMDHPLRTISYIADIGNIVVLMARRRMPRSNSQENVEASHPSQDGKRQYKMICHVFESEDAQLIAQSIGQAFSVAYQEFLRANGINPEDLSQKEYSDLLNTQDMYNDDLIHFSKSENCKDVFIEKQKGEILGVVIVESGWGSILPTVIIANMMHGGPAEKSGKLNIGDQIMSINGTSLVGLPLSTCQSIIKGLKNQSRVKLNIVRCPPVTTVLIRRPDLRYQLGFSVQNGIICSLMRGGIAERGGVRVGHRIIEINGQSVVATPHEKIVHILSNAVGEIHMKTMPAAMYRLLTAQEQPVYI

[16] = biological target: NS3 (Hepatitis C virus, UniProt A3EZJ3); experiment: PubChem AID 2173; design: species or system Hepacivirus hominis
[17] = biological target: T6, Voltage-gated N-type calcium channel alpha-1B subunit/Amyloid beta A4 precursor protein-binding family A member 1; format: protein assay; remark: listed apart in the source
[18] = biological target: DNA dC->dU-editing enzyme APOBEC-3A (Homo sapiens, UniProt P31941); experiment: A3A deaminase inhibition for selectivity – biochemical, dose response (AID 504722); format: functional
DNA dC->dU-editing enzyme APOBEC-3A, sequence (P31941 whole entry): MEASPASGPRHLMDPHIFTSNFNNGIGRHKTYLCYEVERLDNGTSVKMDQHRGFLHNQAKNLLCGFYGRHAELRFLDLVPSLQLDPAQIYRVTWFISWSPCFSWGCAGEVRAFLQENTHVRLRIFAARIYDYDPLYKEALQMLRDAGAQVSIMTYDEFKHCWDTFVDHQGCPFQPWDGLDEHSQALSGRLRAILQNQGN

[19] = biological target: DNA dC->dU-editing enzyme APOBEC-3G (Homo sapiens, UniProt Q9HC16); experiment: Dose Response confirmation of small molecule APOBEC3G DNA Deaminase Inhibitors via a fluorescence-based single-stranded DNA deaminase assay. [Related pubchem assays (depositor defined):AID493012, AID493028]; format: functional
DNA dC->dU-editing enzyme APOBEC-3G, sequence (Q9HC16 whole entry): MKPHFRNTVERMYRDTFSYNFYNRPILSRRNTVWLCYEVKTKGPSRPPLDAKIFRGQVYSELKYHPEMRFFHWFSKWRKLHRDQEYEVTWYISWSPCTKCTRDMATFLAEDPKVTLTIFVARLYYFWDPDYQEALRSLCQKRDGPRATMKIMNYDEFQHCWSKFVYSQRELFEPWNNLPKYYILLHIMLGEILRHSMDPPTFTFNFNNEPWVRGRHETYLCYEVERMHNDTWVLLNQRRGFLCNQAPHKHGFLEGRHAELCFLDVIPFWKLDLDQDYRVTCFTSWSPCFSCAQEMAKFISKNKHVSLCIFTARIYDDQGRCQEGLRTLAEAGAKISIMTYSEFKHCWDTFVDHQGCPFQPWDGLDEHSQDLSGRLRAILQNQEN

[20] = biological target: FAD-linked sulfhydryl oxidase ALR (Homo sapiens, UniProt P55789); experiment: ALR-catalysed DTT oxidation blockers – biochemical, H2O2 detection, luminescence, cherry-pick, dose response (AID 493248)
[21] = biological target: G-protein coupled receptor 55 (Homo sapiens, UniProt Q9Y2T6); experiment: inhibition of LPI-stimulated GPR55 beta-arrestin translocation – imaging, U2OS, beta-arrestin-GFP, LPI agonist, primary screen (AID 2013); format: functional;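 note: antagonist potency measured as reduced agonist-driven arrestin aggregation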
G-protein coupled receptor 55, sequence (Q9Y2T6 whole entry, the tested form may be a part): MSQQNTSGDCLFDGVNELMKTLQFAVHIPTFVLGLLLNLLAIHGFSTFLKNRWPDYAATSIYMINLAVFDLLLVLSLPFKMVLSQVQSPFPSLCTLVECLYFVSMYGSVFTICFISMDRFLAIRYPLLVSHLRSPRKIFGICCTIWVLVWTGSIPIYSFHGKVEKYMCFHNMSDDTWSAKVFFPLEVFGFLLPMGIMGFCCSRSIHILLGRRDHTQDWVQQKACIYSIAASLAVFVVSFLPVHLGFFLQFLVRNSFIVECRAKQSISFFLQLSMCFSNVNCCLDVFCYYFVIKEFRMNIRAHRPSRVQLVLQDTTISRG

[22] = blockers of HIV-1 envelope-mediated cell-cell fusion – cherry-pick, dose response (AID 652057); format: functional, cell-based
[23] = blockers of HIV-1 ZM109 envelope-driven cell-cell fusion – HeLa effector, CEM target cells, luciferase, cherry-pick, dose response (AID 652058); format: functional, cell-based;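 note: luciferase signal from HIV-1 Env mediated cell-cell fusion of effector and target cells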
[24] = off-target signal loss in HeLa-CEM21 co-culture – HeLa F-luc CTL cells, cherry-picked, counter-screen for HIV-1 Env fusion inhibitor project, dose response (AID 652040); format: functional, cell-based;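 note: potency for signal decrease marking cytotoxic or nonspecific inhibition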
[25] = microbe, parasite or virus in culture; format: functional; conditions: Mycobacterium tuberculosis
[26] = biological target: Melanocortin receptor 4 (Homo sapiens, UniProt P32245); format: functional, cell-based;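 note: Cell-based assay with luminescence read-out, confirmatory dose-response testing for agonist activity of biased ligands at MC4R; human U2OS cells with tagged receptor and beta-arrestin; potency of agonists that increase receptor coupling to beta-arrestin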
Melanocortin receptor 4, sequence (P32245 whole entry): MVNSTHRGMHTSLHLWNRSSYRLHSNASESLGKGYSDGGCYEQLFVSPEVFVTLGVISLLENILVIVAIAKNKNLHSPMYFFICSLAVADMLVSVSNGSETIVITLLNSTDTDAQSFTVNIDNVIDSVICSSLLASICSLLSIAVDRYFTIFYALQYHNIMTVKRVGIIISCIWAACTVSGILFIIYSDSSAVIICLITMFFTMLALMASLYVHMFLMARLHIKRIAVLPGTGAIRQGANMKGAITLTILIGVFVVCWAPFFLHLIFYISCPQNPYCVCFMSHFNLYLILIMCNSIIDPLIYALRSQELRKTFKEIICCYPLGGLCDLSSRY

[27] = biological target: T7, Mannose-6-phosphate isomerase (Homo sapiens, UniProt P34949); experiment: MPI enzyme activity inhibition – biochemical, fluorescence intensity, coupled assay, primary screen (AID 1209)
T7 sequence (P34949 whole entry): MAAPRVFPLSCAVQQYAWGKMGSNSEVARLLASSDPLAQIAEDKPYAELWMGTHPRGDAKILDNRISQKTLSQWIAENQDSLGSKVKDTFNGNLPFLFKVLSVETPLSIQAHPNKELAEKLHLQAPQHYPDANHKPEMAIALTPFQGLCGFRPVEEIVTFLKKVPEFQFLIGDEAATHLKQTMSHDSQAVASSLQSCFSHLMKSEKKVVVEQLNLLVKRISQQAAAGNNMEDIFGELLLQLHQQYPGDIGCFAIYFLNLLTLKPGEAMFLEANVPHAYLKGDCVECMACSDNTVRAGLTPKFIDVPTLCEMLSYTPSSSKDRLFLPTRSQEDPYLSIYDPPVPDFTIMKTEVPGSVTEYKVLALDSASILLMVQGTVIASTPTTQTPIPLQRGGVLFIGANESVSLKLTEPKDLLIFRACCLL

[28] = biological target: T7, Mannose-6-phosphate isomerase; experiment: MPI inhibition at elevated mannose 6-phosphate – biochemical, fluorescence intensity, high mannose 6-phosphate, primary screen (AID 1220)

## CCOC(=O)C1=C(Cc2ccc(F)cc2)C(=O)c2ccccc2C1=O
[1]
  IC50: > 66.6 µM (inactive)
[2]
  IC50: 11.4 µM (active)
[3]
  AC50: 13.4 µM (active)
[4]
  CC50: > 40 µM (active)
[5]
  IC50: 86.4 µM (active)

## Cc1cccc(C(=O)Nc2cc(Cl)ccc2C(=O)O)c1
[6]
  IC50: 22.3 µM (active)

## COc1ccc(N2Cc3cccc(C(=O)N4CCN(C(=O)c5ccco5)CC4)c3C2=O)cc1
[7]
  IC50: 9.8 µM (active)
[8]
  IC50: 5.99 µM (active)
[9]
  IC50: > 50 µM (not active)
[10]
  IC50: 3.1 µM (active)
[11]
  IC50: 1.43 µM (active)
[12]
  IC50: 10.2 µM (active)
[13]
  IC50: 4.24 µM (active)
[14]
  IC50: 9.04 µM (active)

## Cc1ccc(C2CC(=O)N3CN(c4ccc(Br)cc4)CSC3=C2C#N)o1 (stereo not drawn)
[15]
  IC50: 9.58 µM (active)
[16]
  IC50: 7.09 µM (active)
[17]
  IC50: 14 µM (active)

## Cn1c(CSc2nc3ccccc3s2)n[nH]c1=S
[18]
  IC50: > 100 µM (inactive)
[19]
  IC50: 4.35 µM (active)
[20]
  AC50: 1.82 µM (active)

## COc1ccc(CCN2C(=O)c3[nH]nc(-c4ccccc4O)c3C2c2cccc(O)c2)cc1OC (stereo not drawn)
[21]
  IC50: 2.7 µM (active)
[22]
  AC50: 2.44 µM (active)
[23]
  AC50: 8.34 µM (active)
[24]
  AC50: 17.6 µM (active)

## O=C(Cn1sc2ccccc2c1=O)Nc1ccc(C(F)(F)F)cc1
[6]
  IC50: > 25 µM (inactive)

## O=C(COc1ccc(Cl)cc1)N/N=C/c1cccc2cccnc12
[1]
  IC50: > 66.6 µM (inactive)

## OC(CNCCc1ccc(C(F)(F)F)cc1)COC(c1ccccc1)c1ccccc1 (stereo not drawn)
[21]
  IC50: 2.65 µM (active)
[25]
  CC50: 24.5 µM (active)
[26]
  EC50: > 89.2 µM (inactive)

## Nn1c(S)nnc1Cc1ccc(Br)cc1
[27]
  IC50: > 50 µM (not active)
[28]
  IC50: > 50 µM (not active)
[18]
  IC50: > 100 µM (inactive)
[19]
  IC50: 3.6 µM (active)

From ChEMBL document CHEMBL1201862, “PubChem BioAssay data set” (2004)
